From US12338262B2 (Forward Therapeutics, Inc., priority 2022, dated 2025)

Molecular target: TNF-α (Homo sapiens, UniProt P01375)
Test: TNF-α Induced HEK Blue Cellular Assay
Type: cell-based
Conditions: HEK Blue TNFα reporter cells, TNF-α 100 pg/ml, 24 hrs at 37° C., secreted alkaline phosphatase (QUANTI-Blue, 620 nm)
Description: TNF-α Induced HEK Bluet Cellular Assay
Test articles were diluted in DMSO and serially diluted into 384 well assay plate (Corning 3765), at final concentrations ranging from […] to 0.5 nM. HEK Blue™ TNFα reporter cells were added at a final density of 10,000 cell per well in assay media [DMEM (Gibco, cat #21063-029), 10% fetal bovine serum (ExcelBio, cat #FND500), 1% Penicillin-Streptomycin (Solarbio, cat #P1400-100]. TNF-α (R&D 210-TA-020/CF) was then added to the assay plate at a final concentration of 100 pg/ml. This plate was then incubated for 24 hrs at 37° C. and 5% CO2. Secreted alkaline phosphatase expression was then measured using QUANTI-Blue™ (Invivogen), according to manufacturer instructions and read on an Envision microplate reader at 620 nm.
Inhibition data for test compound over a range of concentration was plotted as percentage inhibition of the test compound (100%=maximum inhibition). IC50 values were determined after correcting for background [(sample read-mean of low control)/(mean of high control-mean of low control)] where by the low control is DMSO without stimulation and high control is DMSO with stimulation. The IC50 is defined as the concentration of test compound which produces 50% inhibition and was quantified using the 4 parameter logistic equation to fit the data.

TNF-α, sequence (P01375 77-233 limits assumed): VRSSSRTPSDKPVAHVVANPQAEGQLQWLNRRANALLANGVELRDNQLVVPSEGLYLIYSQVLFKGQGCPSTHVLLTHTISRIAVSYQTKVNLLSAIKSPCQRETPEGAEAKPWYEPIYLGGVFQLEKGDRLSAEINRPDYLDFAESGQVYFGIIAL

IC50 [nM]	SMILES
≤ 100	Cc1nc2cc(F)c(-c3ccc(P(C)(C)=O)nc3)nc2c(N[C@@H](c2ccccc2F)C(F)F)c1Cl (single isomer, unassigned) [Example 25]
≤ 100	CC[P@](C)(=O)c1ccc(-c2nc3c(N[C@H](C)c4cc(C#N)ccc4F)c(Cl)c(C)nc3cc2F)cn1 (single isomer, unassigned) [Example 58]
10000 to 30000	Cc1nc2cc(F)c(-c3ccc(P(C)(C)=O)nc3)nc2c(N[C@H](CO)c2cc(C#N)ccc2F)c1Cl (single isomer, unassigned) [Example 63]
10000 to 30000	Cc1nc2cc(F)c(-c3ccc(P(C)(C)=O)nc3)nc2c(N[C@@H](CO)c2cc(C#N)ccc2F)c1Cl (single isomer, unassigned) [Example 64]
10000 to 30000	Cc1nc2cc(F)c(-c3ccc(P(C)(C)=O)nc3)cc2c(N[C@H](C)c2cncnc2)c1Cl (single isomer, unassigned) [Example 100]
10000 to 30000	Cc1nc2cc(F)c(-c3ccc(P(C)(C)=O)nc3)cc2c(N[C@@H](C)c2cncnc2)c1Cl (single isomer, unassigned) [Example 101]
≤ 100	Cc1nc2cc(F)c(-c3ccc(P(C)(C)=O)nc3)nc2c(N[C@H](C)c2ccc(F)c(F)c2F)c1Cl (single isomer, unassigned) [Example 109]
≤ 100	Cc1nc2cc(F)c(-c3ccc(P(C)(C)=O)nc3)nc2c(N[C@@H](C)c2ccc(F)c(F)c2F)c1Cl (single isomer, unassigned) [Example 110]
≤ 100	Cc1nc2cc(F)c(-c3ccc(P(C)(C)=O)nc3)nc2c(N[C@H](C)c2ncccc2F)c1Cl (single isomer, unassigned) [Example 116]
1000 to 10000	Cc1nc2cc(F)c(-c3ccc(P(C)(C)=O)nc3)nc2c(N[C@@H](C)c2ncccc2F)c1Cl (single isomer, unassigned) [Example 117]
10000 to 30000	Cc1nc2cc(F)c(-c3ccc(P(C)(C)=O)nc3)nc2c(N[C@@H](c2cccc(F)c2F)C(F)F)c1Cl (single isomer, unassigned) [Example 145]
≤ 100	Cc1nc2cc(F)c(-c3cnc(P(C)(C)=O)nc3)nc2c(N[C@H](C)c2cc(C#N)ccc2F)c1Cl [Example 1, 3-[(1R)-1-({3-chloro-6-[2-(dimethylphosphoryl)pyrimidin-5-yl]-7-fluoro-2-methyl-1,5-naphthyridin-4-yl}amino)ethyl]-4-fluorobenzonitrile]
≤ 100	Cc1nc2cc(F)c(-c3ccc(P(C)(C)=O)nc3)nc2c(N[C@H](C)c2cc(C#N)ccc2F)c1Cl [Example 2, 3-[(1R)-1-({3-chloro-6-[6-(dimethylphosphoryl)pyridin-3-yl]-7-fluoro-2-methyl-1,5-naphthyridin-4-yl}amino)ethyl]-4-fluorobenzonitrile]
≤ 100	Cc1nc2cc(F)c(-c3ccc(P(C)(C)=O)cc3)nc2c(N[C@H](C)c2cc(C#N)ccc2F)c1Cl [Example 3, 3-[(1R)-1-({3-chloro-6-[4-(dimethylphosphoryl)phenyl]-7-fluoro-2-methyl-1,5-naphthyridin-4-yl}amino)ethyl]-4-fluorobenzonitrile]
≤ 1000	CC[C@@H](Nc1c(Cl)c(C)nc2cc(F)c(-c3ccc(P(C)(C)=O)c(F)c3)nc12)c1ncccc1F [Example 4, 3-chloro-6-[4-(dimethylphosphoryl)-3-fluorophenyl]-7-fluoro-N-[(1R)-1-(3-fluoropyridin-2-yl)propyl]-2-methyl-1,5-naphthyridin-4-amine]
≤ 100	Cc1nc2ccc(-c3ccc(P(C)(C)=O)nc3)cc2c(N[C@H](C)c2cc(C#N)ccc2F)c1Cl [Example 5, 3-[(1R)-1-({3-chloro-6-[6-(dimethylphosphoryl)pyridin-3-yl]-2-methylquinolin-4-yl}amino)ethyl]-4-fluorobenzonitrile]

IC50 [nM]	SMILES
≤ 1000	Cc1nc2ccc(-c3cnc(P(C)(C)=O)nc3)cc2c(N[C@H](C)c2cc(C#N)ccc2F)c1Cl [Example 6, 3-[(1R)-1-({3-chloro-6-[2-(dimethylphosphoryl)pyrimidin-5-yl]-2-methylquinolin-4-yl}amino)ethyl]-4-fluorobenzonitrile]
≤ 1000	Cc1nc2cc(F)c(-c3cnc(P(C)(C)=O)nc3)nc2c(N[C@H](C)c2ccccc2F)c1Cl [Example 7, 3-chloro-6-[2-(dimethylphosphoryl)pyrimidin-5-yl]-7-fluoro-N-[(1R)-1-(2-fluorophenyl)ethyl]-2-methyl-1,5-naphthyridin-4-amine]
≤ 100	Cc1nc2cc(F)c(-c3cnc(P(C)(C)=O)nc3)cc2c(N[C@H](C)c2cc(C#N)ccc2F)c1Cl [Example 8, 3-[(1R)-1-({3-chloro-6-[2-(dimethylphosphoryl)pyrimidin-5-yl]-7-fluoro-2-methylquinolin-4-yl}amino)ethyl]-4-fluorobenzonitrile]
≤ 100	CC[C@@H](Nc1c(Cl)c(C)nc2cc(F)c(-c3cnc(P(C)(C)=O)nc3)nc12)c1cc(C#N)ccc1F [Example 9, 3-[(1R)-1-({3-chloro-6-[2-(dimethylphosphoryl)pyrimidin-5-yl]-7-fluoro-2-methyl-1,5-naphthyridin-4-yl}amino)propyl]-4-fluorobenzonitrile]
≤ 100	Cc1nc2cc(F)c(-c3ccc(P(C)(C)=O)nc3)cc2c(N[C@H](C)c2cc(C#N)ccc2F)c1Cl [Example 10, 3-[(1R)-1-({3-chloro-6-[6-(dimethylphosphoryl)pyridin-3-yl]-7-fluoro-2-methylquinolin-4-yl}amino)ethyl]-4-fluorobenzonitrile]
≤ 100	Cc1nc2cc(F)c(-c3cnc(P(C)(C)=O)nc3)cc2c(N[C@H](C)c2ccccc2F)c1Cl [Example 11, 3-chloro-6-[2-(dimethylphosphoryl)pyrimidin-5-yl]-7-fluoro-N-[(1R)-1-(2-fluorophenyl)ethyl]-2-methylquinolin-4-amine]
≤ 1000	C[C@@H](Nc1c(Cl)cnc2cc(F)c(-c3cnc(P(C)(C)=O)nc3)cc12)c1cc(C#N)ccc1F [Example 12, 3-[(1R)-1-({3-chloro-6-[2-(dimethylphosphoryl)pyrimidin-5-yl]-7-fluoroquinolin-4-yl}amino)ethyl]-4-fluorobenzonitrile]
≤ 100	Cc1nc2cc(F)c(-c3ccc(P(C)(C)=O)nc3)nc2c(N[C@H](C)c2cc(C(N)=O)ccc2F)c1Cl [Example 13, 3-[(1R)-1-({3-chloro-6-[6-(dimethylphosphoryl)pyridin-3-yl]-7-fluoro-2-methyl-1,5-naphthyridin-4-yl}amino)ethyl]-4-fluorobenzamide]
≤ 1000	C[C@@H](Nc1c(Cl)cnc2cc(F)c(-c3cnc(P(C)(C)=O)nc3)nc12)c1cc(C#N)ccc1F [Example 14, 3-[(1R)-1-({3-chloro-6-[2-(dimethylphosphoryl)pyrimidin-5-yl]-7-fluoro-1,5-naphthyridin-4-yl}amino)ethyl]-4-fluorobenzonitrile]
≤ 100	C[C@@H](Nc1c(Cl)cnc2cc(F)c(-c3ccc(P(C)(C)=O)nc3)nc12)c1cc(C#N)ccc1F [Example 15, 3-[(1R)-1-({3-chloro-6-[6-(dimethylphosphoryl)pyridin-3-yl]-7-fluoro-1,5-naphthyridin-4-yl}amino)ethyl]-4-fluorobenzonitrile]
≤ 100	CC[C@@H](Nc1c(Cl)c(C)nc2cc(F)c(-c3cnc(P(C)(C)=O)nc3)nc12)c1ccccc1F [Example 16, 3-chloro-6-[2-(dimethylphosphoryl)pyrimidin-5-yl]-7-fluoro-N-[(1R)-1-(2-fluorophenyl)propyl]-2-methyl-1,5-naphthyridin-4-amine]
≤ 1000	CC[C@H](Nc1c(Cl)c(C)nc2cc(F)c(-c3cnc(P(C)(C)=O)nc3)nc12)c1ccccc1F [Example 17, 3-chloro-6-[2-(dimethylphosphoryl)pyrimidin-5-yl]-7-fluoro-N-[(1S)-1-(2-fluorophenyl)propyl]-2-methyl-1,5-naphthyridin-4-amine]
≤ 100	Cc1nc2cc(F)c(-c3ccc(P(C)(C)=O)nc3)nc2c(N[C@H](C)c2ccccc2F)c1Cl [Example 18, 3-chloro-6-[6-(dimethylphosphoryl)pyridin-3-yl]-7-fluoro-N-[(1R)-1-(2-fluorophenyl)ethyl]-2-methyl-1,5-naphthyridin-4-amine]
≤ 100	Cc1nc2cc(F)c(-c3ccc(P(C)(C)=O)nc3)cc2c(N[C@H](C)c2ccccc2F)c1Cl [Example 19, 3-chloro-6-[6-(dimethylphosphoryl)pyridin-3-yl]-7-fluoro-N-[(1R)-1-(2-fluorophenyl)ethyl]-2-methylquinolin-4-amine]
≤ 100	CC[C@@H](Nc1c(Cl)c(C)nc2cc(F)c(-c3ccc(P(C)(C)=O)nc3)nc12)c1cc(C#N)ccc1F [Example 20, 3-[(1R)-1-({3-chloro-6-[6-(dimethylphosphoryl)pyridin-3-yl]-7-fluoro-2-methyl-1,5-naphthyridin-4-yl}amino)propyl]-4-fluorobenzonitrile]

SMILES	IC50 [nM]
COP(=O)(O)c1ccc(-c2nc3c(N[C@H](C)c4cc(C#N)ccc4F)c(Cl)c(C)nc3cc2F)cn1 [Example 21, ammonium methyl 5-(7-chloro-8-{[(1R)-1-(5-cyano-2-fluorophenyl)ethyl]amino}-3-fluoro-6-methyl-1,5-naphthyridin-2-yl)pyridin-2-ylphosphonate]	≤ 1000
